SMILES strings stand for the structures. “Also recorded” adds a separate entry of the source.

We go through ten compounds from patent publication US20120064514A1, “HIV-1-C […]” (Virco BVBA, priority 2009, published 2012).

Assay [1] has as its system HIV-1-C recombinant virus stocks (pGEM-HIV-1-C-Δgprt-BstEII backbone). The assay is described as follows: Antiviral drug susceptibility testing of recombinant virus stocks, subtype C GPRT amplicon in HIV-1 subtype C backbone, MT4-eGFP cells. It counts as cell-based. The settings on record: for effect of RAM M184V in RT on FC: subtype C backbone, Clone 3 of Sample 3, FC with vs without 184V, FIG. 4; for ratio FCsubtype B/FCsubtype C (fold change in IC50 vs wild-type): same subtype C GPRT amplicons in subtype B vs subtype C backbone, FIG. 3-E, ratio significantly different from 1 (p<0.05) for the listed drugs. An excerpt:
(§1) An HIV subtype C backbone was designed in silico. The complete genome (12 721 bp) was divided into 4 fragments which were chemically synthesized and subsequently joined together by traditional subcloning. Gag-protease-reverse-transcriptase (GPRT) fragments from 8 patient samples infected with subtype C HIV-1 were RT-PCR amplified. The 1.7 kb PCR fragment was cloned into the HIV-1-C backbone (deleted for GPRT) using In-Fusion reagents. Full-genome clones (N ranging from 1 to 5 per patient sample) were transfected in MT4-eGFP cells where cyto-pathogenic effect (CPE), p24 and Viral Load (VL) were monitored. The resulting HIV-1-C recombinant virus stocks (RVSs) were added to MT4-eGFP cells in the presence of serial dilutions of antiretroviral drugs (PI, NNRTI, N(t)RTI) to determine the fold-change in IC50 compared to the IC50 of wild-type HIV-1 virus. Additionally, viral RNA was extracted from the HIV-1-C RVSs and submitted to an RT-PCR. The resulting GPRT amplicons were recombined into a subtype B backbone and phenotyped as described above, allowing the comparison of GPRT resistance profiles in the two backbones.
(§2) 5. Antiviral Drug Susceptibility Testing of Virus Stocks Generated with the pGEM-HIV-1-C-Δgprt-BstEII vs. the pGEM-HXB2-Δgprt-BstEII Backbone but Carrying Identical GPRT Fragments.
(§3) Fold-change values were calculated by dividing the IC50 values of the virus stocks harboring Resistance Associated Mutations (RAMs) by the IC50 values of the corresponding backbone with wild-type amplicon.

Assay [2] concerns recombinant virus stocks with subtype C GPRT in pGEM-HXB2-Δgprt-BstEII (subtype B) backbone. The assay is described as follows: Antiviral drug susceptibility testing of recombinant virus stocks, subtype C GPRT amplicon in HIV-1 subtype B backbone, MT4-eGFP cells. The settings on record: Clone 3 of Sample 3, FC with vs without 184V, FIG. 4. In kind it is cell-based.
Source text: as §1
In contrast to the In-Fusion strategy for the subtype C backbone, a homologous recombination event strategy was used for the subtype B backbone to generate infectious virus. Here the BstEII-linearized pGEM-HXB2Δgprt-BstEII backbone was co-transfected with the 1.8 kb GPRT fragment in an MT4 cell line, resulting in a full-genome infectious virus.
as §2, §3

Regarding `Nc1nc(NC2CC2)c2ncn([C@H]3C=C[C@@H](CO)C3)c2n1` [ABC], the “effect of RAM M184V in RT on FC” value in assay [1] and in assay [2] was “not significantly affected” throughout. For `Cc1cn([C@H]2C[C@H](N=[N+]=[N-])[C@@H](CO)O2)c(=O)[nH]c1=O` [AZT], the “effect of RAM M184V in RT on FC” value in assay [1] and in assay [2] was “re-sensitizing effects; also recorded: decreases the FC” throughout.

`Cc1cc(C#N)cc(C)c1Oc1nc(Nc2ccc(C#N)cc2)nc(N)c1Br` [ETR, etravirine]: in assay [1], the “ratio FCsubtype B/FCsubtype C (fold change in IC50 vs wild-type)” value is listed as 0.67. Regarding `Nc1nc(=O)n([C@@H]2CS[C@H](CO)O2)cc1F` [FTC, emtricitabine], in assay [1], the “ratio FCsubtype B/FCsubtype C (fold change in IC50 vs wild-type)” value is reported as 0.50 and the “effect of RAM M184V in RT on FC” value was “increase in FC”. Also, the “effect of RAM M184V in RT on FC” value in assay [2] is recorded as “increase in FC”. In the case of `CC(C)OC(=O)OCOP(=O)(CO[C@H](C)Cn1cnc2c(N)ncnc21)OCOC(=O)OC(C)C.O=C(O)/C=C/C(=O)O` [TDF], the “effect of RAM M184V in RT on FC” value in assay [1] and in assay [2] was “decreases the FC” in each case. Turning to `Cc1cn([C@H]2C=C[C@@H](CO)O2)c(=O)[nH]c1=O` [d4T], the “effect of RAM M184V in RT on FC” value in assay [1] and in assay [2] was “decreases the FC” in each case. For `CC(C)CN(C[C@@H](O)[C@H](Cc1ccccc1)NC(=O)O[C@H]1CO[C@H]2OCC[C@H]21)S(=O)(=O)c1ccc(N)cc1` [darunavir], the “ratio FCsubtype B/FCsubtype C (fold change in IC50 vs wild-type)” value in assay [1] was 1.78.

For `O=c1[nH]cnc2c1ncn2[C@H]1CC[C@@H](CO)O1` [ddI, didanosine], the “effect of RAM M184V in RT on FC” value in assay [1] and in assay [2] was “not significantly affected” in each case.

As for `Cc1cccc(C)c1OCC(=O)N[C@@H](Cc1ccccc1)[C@@H](O)C[C@H](Cc1ccccc1)NC(=O)[C@H](C(C)C)N1CCCNC1=O` [lopinavir], the “ratio FCsubtype B/FCsubtype C (fold change in IC50 vs wild-type)” value in assay [1] came out at 1.86.

As to `Cc1ccnc2c1NC(=O)c1cccnc1N2C1CC1` [nevirapine], the “ratio FCsubtype B/FCsubtype C (fold change in IC50 vs wild-type)” value in assay [1] amounted to 1.61.
